Experimental data published in patent US10736864B2, “Immunotherapeutic agent” (Immodulon Therapeutics Limited, priority 2016, dated 2020).

Tests used:
[1] = system: splenocytes stimulated in vitro with ovalbumin; assay: In vitro splenocyte culture from treated mice, ovalbumin stimulation (cytokine ELISA); format: in vivo, BALB/c mice; settings: FIG. 3B; mice treated 5 μg s.c.; allergen (ovalbumin) stimulation; vs buffer
[2] = system: allergic mice challenged with ovalbumin; assay: Murine model of allergic pulmonary inflammation: treatment studies (BAL cells and cytokines); format: in vivo, BALB/c mice; settings: vs vehicle; for number of eosinophils recovered in the BAL fluid / numbers of macrophages in BAL fluid / total cellular infiltrate in BAL fluid / IL-5 concentrations in the BAL fluid / IL-10 concentrations in the BAL fluid: Experiments 5 and 6, lipid 5 μg s.c.; for number of eosinophils recovered in the BAL fluid / numbers of macrophages in BAL fluid / total cellular infiltrate in BAL fluid: M. vaccae 0.1 mg s.c.
[3] = system: freshly isolated murine peritoneal macrophages; assay: LPS-induced IL-6 secretion in freshly isolated peritoneal macrophages (ELISA); format: cell-based, BALB/c mice
Description: Experiment 7 was carried out to resolve if 10(Z)-hexadecenoic acid has a direct effect on immune cells. Macrophages were selected for this study on account of their ubiquity and diverse role in immune processes. To simulate inflammation, freshly isolated mouse peritoneal macrophages were challenged with lipopolysaccharide (LPS; 1 μg/mL) ex vivo.
Murine peritoneal macrophages were isolated as previously described (Zhang, X. et al. (2008)). Briefly, mice received one 1 ml i.p. injection of 3% thioglycollate medium (Cat. No. 9000-294, VWR, Radnor, Pa., USA). Ninety-six hours later, macrophages were collected in DPBS (Cat. No. 14190136, Invitrogen, Carlsbad, Calif., USA). Cells were centrifuged and resuspended in DMEM/F-12 (Cat. No. 10565018, Invitrogen) supplemented to be 10% (v/v) fetal bovine serum (Cat. No. 16000036, Invitrogen) and 1% penicillin/streptomycin (Cat. No. 15140148, Invitrogen). One mouse yielded enough cells for one experimental replicate. 1×10^5 cells/well were allowed to adhere for 1.5 h before being washed with DPBS. 10(Z)-hexadecenoic acid was dissolved in DMEM/F-12 with 0.5% (v/v) dimethyl sulfoxide (Cat. No. D8418, Sigma-Aldrich). The macrophages were incubated with either 10(Z)-hexadecenoic acid (0.4 μM, 4 μM, 20 μM, 100 μM, 500 μM, 1000 μM) or DMEM/F-12 for 1 h before being stimulated with 1 μg/ml lipopolysaccharide (serotype 0127:B8, Sigma-Aldrich, St. Louis, Mo., USA). Culture supernatants were collected at 6, 12, and 24 h post-stimulation.
Cell culture supernatants from freshly isolated peritoneal macrophages were diluted 1:200, and IL-6 was measured using sandwiched ELISA (Cat. No. 431304, Biolegend, San Diego, Calif., USA). All samples were measured in duplicate.

[4] = system: freshly isolated murine peritoneal macrophages; assay: Proinflammatory cytokine and chemokine ligand mRNA levels (RNAseq) in LPS-stimulated peritoneal macrophages; format: cell-based
Description: This can be measured using RNAseq analysis of freshly isolated murine peritoneal macrophages stimulated with LPS, in the presence or absence of 10(Z)-hexadecenoic acid. […] Compounds of the invention are therefore useful in inhibiting the proinflammatory cascade that contributes to the pathology of sepsis.
This difference was observable as early as 6 h after LPS challenge, and was sustained for at least 24 h. The effect also appeared to be concentration and time dependent. The lowest concentration of 0.4 μM was ineffective at 6 h, but reduced IL-6 secretion to 40% of control levels at 24 h. This time and concentration dependence may indicate that a receptor-mediated transcriptional change is occurring. In contrast to the effects of 10(Z)-hexadecenoic acid on LPS-induced IL-6 secretion, it had no effect of IL-6 secretion by itself (FIG. 4D). A transcriptional change was confirmed by measurement of pro-inflammatory cytokine and chemokine ligand mRNA levels in macrophages pre-treated with 10(Z)-hexadecenoic acid for 1 h prior to LPS treatment (Table 2).

[5] = system: freshly isolated murine peritoneal macrophages; assay: Sulforhodamine B (SRB) macrophage cell viability / cytotoxicity assay
Description: Sulforhodamine B (SRB) was used to assess cytotoxic effects of various concentrations of 10(Z)-hexadecenoic acid (10 μM, 50 μM, 100 μM, 250 μM, 500 μM, 1000 μM) after 0, 6, 12, 24, 48, and 72 h of incubation with freshly isolated murine peritoneal macrophages. Percent control growth is expressed as % viability and is a ratio of the amount of growth that occurred with treatment over the amount of growth that occurred in media. […] Data are expressed as mean±SEM of 3-7 mice per condition.
Cytotoxicity was determined using the sulforhodamine B (SRB) colorimetric assay, as previously described (Vichai and Kirtikara, 2006). Briefly, without removing the culture media, cells were fixed by adding cold trichloroacetic acid and incubated at 4° C. for 1 h. The plates were washed with slow-running tap water and set out to dry overnight. Then, 0.057% SRB (Cat. No. AC333130050, Fisher, Pittsburgh, Pa., USA), solubilized in 10 mMTris (Cat. No. BP153, Fisher), was added to each well. After 30 min, plates were washed with 1% acetic acid and set out to dry overnight. SRB was measured at 490 nm on a Synergy HT microplate reader (Part Number 7091000, Biotek, Winooski, Vt., USA). Cell viability was expressed as the ratio of experimental and control growth.

SMILES: CCCCC/C=C\CCCCCCCCC(=O)OCC(COC(=O)CCCCCCCC/C=C\CCCCC)OC(=O)CCCCCCCC/C=C\CCCCC [1,2,3-tri[Z-10-hexadecenoyl]glycerol]
- IL-5 levels in the supernatant of splenocytes [1]: decrease
- IL-10 levels in the supernatant of splenocytes [1]: increase
- number of eosinophils recovered in the BAL fluid [2]: reduction
- numbers of macrophages in BAL fluid [2]: not increased
- total cellular infiltrate in BAL fluid [2]: reduction
- IL-5 concentrations in the BAL fluid [2]: decrease
- IL-10 concentrations in the BAL fluid [2]: increase

SMILES: CCCCC/C=C\CCCCCCCCC(=O)O [10(Z)-hexadecenoic acid]
- numbers of neutrophils in BAL fluid ([2]; Experiment 6): did not induce increases
- number of eosinophils recovered in the BAL fluid [2]: significant reduction
- numbers of macrophages in BAL fluid [2]: did not induce increases
- total cellular infiltrate in BAL fluid [2]: significant reduction
- IL-5 concentrations in the BAL fluid [2]: decrease
- IL-10 concentrations in the BAL fluid [2]: increase
- LPS-induced IL-6 secretion ([3]; 0.4 μM, 6 h after LPS): ineffective
- LPS-induced IL-6 secretion ([3]; 0.4 μM, 24 h after LPS): 40 % of control levels
- LPS-induced IL-6 secretion ([3]; 1 h preincubation (0.4-1000 μM), LPS 1 μg/mL, 6, 12, 24 h, vs media alone): secreted less IL-6
- IL-6 secretion by itself ([3]; absence of LPS, FIG. 4D): no effect
- Ccl17 mRNA Mean #Reads s148.2 + LPS ([4]; preincubation then LPS, n = 3, LPS alone 24): 3
- II11 mRNA Mean #Reads s148.2 + LPS ([4]; preincubation then LPS, n = 3, LPS alone 26): 5
- Ccl22 mRNA Mean #Reads s148.2 + LPS ([4]; preincubation then LPS, n = 3, LPS alone 327): 117
- Ccl4 mRNA Mean #Reads s148.2 + LPS ([4]; preincubation then LPS, n = 3, LPS alone 603): 305
- II12a mRNA Mean #Reads s148.2 + LPS ([4]; preincubation then LPS, n = 3, LPS alone 714): 268
- Ccl6 mRNA Mean #Reads s148.2 + LPS ([4]; preincubation then LPS, n = 3, LPS alone 810): 368
- Ccl7 mRNA Mean #Reads s148.2 + LPS ([4]; preincubation then LPS, n = 3, LPS alone 1182): 441
- II6 mRNA Mean #Reads s148.2 + LPS ([4]; preincubation then LPS, n = 3, LPS alone 1302): 305
- Tnf mRNA Mean #Reads s148.2 + LPS ([4]; preincubation then LPS, n = 3, LPS alone 2098): 1023
- Cxcl2 mRNA Mean #Reads s148.2 + LPS ([4]; preincubation then LPS, n = 3, LPS alone 4726, functional homologue of human IL-8): 2680
- Ccl2 mRNA Mean #Reads s148.2 + LPS ([4]; preincubation then LPS, n = 3, LPS alone 5656): 2234
- Ccl3 mRNA Mean #Reads s148.2 + LPS ([4]; preincubation then LPS, n = 3, LPS alone 6693): 4067
- II1b mRNA Mean #Reads s148.2 + LPS ([4]; preincubation then LPS, n = 3, LPS alone 15,957): 5349
- II1a mRNA Mean #Reads s148.2 + LPS ([4]; preincubation then LPS, n = 3, LPS alone 16533): 8500
- Ccl2 mRNA Effect ([4]; vs LPS alone): ↓
- Ccl2 mRNA Fold-change ([4]; vs LPS alone): 0.39
- Ccl2 mRNA Log2 Fold-change ([4]; vs LPS alone): −1.34
- Ccl3 mRNA Effect ([4]; vs LPS alone): ↓
- Ccl3 mRNA Fold-change ([4]; vs LPS alone): 0.61
- Ccl3 mRNA Log2 Fold-change ([4]; vs LPS alone): −0.72
- Ccl4 mRNA Effect ([4]; vs LPS alone): ↓
- Ccl4 mRNA Fold-change ([4]; vs LPS alone): 0.51
- Ccl4 mRNA Log2 Fold-change ([4]; vs LPS alone): −0.98
- Ccl6 mRNA Effect ([4]; vs LPS alone): ↓
- Ccl6 mRNA Fold-change ([4]; vs LPS alone): 0.45
- Ccl6 mRNA Log2 Fold-change ([4]; vs LPS alone): −1.14
- Ccl7 mRNA Effect ([4]; vs LPS alone): ↓
- Ccl7 mRNA Fold-change ([4]; vs LPS alone): 0.37
- Ccl7 mRNA Log2 Fold-change ([4]; vs LPS alone): −1.42
- Ccl17 mRNA Effect ([4]; vs LPS alone): ↓
- Ccl17 mRNA Fold-change ([4]; vs LPS alone): 0.12
- Ccl17 mRNA Log2 Fold-change ([4]; vs LPS alone): −3.08
- Ccl22 mRNA Effect ([4]; vs LPS alone): ↓
- Ccl22 mRNA Fold-change ([4]; vs LPS alone): 0.36
- Ccl22 mRNA Log2 Fold-change ([4]; vs LPS alone): −1.48
- Cxcl2 mRNA Effect ([4]; vs LPS alone): ↓
- Cxcl2 mRNA Fold-change ([4]; vs LPS alone): 0.57
- Cxcl2 mRNA Log2 Fold-change ([4]; vs LPS alone): −0.82
- II1a mRNA Effect ([4]; vs LPS alone): ↓
- II1a mRNA Fold-change ([4]; vs LPS alone): 0.51
- II1a mRNA Log2 Fold-change ([4]; vs LPS alone): −0.96
- II1b mRNA Effect ([4]; vs LPS alone): ↓
- II1b mRNA Fold-change ([4]; vs LPS alone): 0.34
- II1b mRNA Log2 Fold-change ([4]; vs LPS alone): −2.16
- II6 mRNA Effect ([4]; vs LPS alone): ↓
- II6 mRNA Fold-change ([4]; vs LPS alone): 0.23
- II6 mRNA Log2 Fold-change ([4]; vs LPS alone): −2.09
- II11 mRNA Effect ([4]; vs LPS alone): ↓
- II11 mRNA Fold-change ([4]; vs LPS alone): 0.20
- II11 mRNA Log2 Fold-change ([4]; vs LPS alone): −2.35
- II12a mRNA Effect ([4]; vs LPS alone): ↓
- II12a mRNA Fold-change ([4]; vs LPS alone): 0.37
- II12a mRNA Log2 Fold-change ([4]; vs LPS alone): −1.42
- Tnf mRNA Effect ([4]; vs LPS alone): ↓
- Tnf mRNA Fold-change ([4]; vs LPS alone): 0.49
- Tnf mRNA Log2 Fold-change ([4]; vs LPS alone): −1.04
- viable macrophages ([5]; 1 mM, at most time points (0-72 h)): less than 40%
- macrophage viability ([5]; all other concentrations (10-500 μM), vs media controls): as viable as or more viable than media controls
